Experimental data from ChEMBL document CHEMBL1131633, “Design, synthesis, and biological activities of new thieno[3,2-d] pyrimidines as selective type 4 phosphodiesterase inhibitors” (J Med Chem, 1998).

What was measured:
[1] = biological target: Phosphodiesterase 4 (Cavia porcellus); assay: Increased cAMP accumulation in isoprenaline-induced guinea pig eosinophils
[2] = biological target: Phosphodiesterase 4 (Cavia porcellus); assay: Inhibitory activity against phosphodiesterase 4 isolated from guinea pig ventricular tissue
[3] = biological target: Phosphodiesterase 3 (Cavia porcellus); assay: Inhibitory activity against cGMP inhibited Phosphodiesterase 3, isolated from guinea pig ventricular tissue
[4] = biological target: Phosphodiesterase 4 (Rattus norvegicus) (UniProt P14270+P14646+P14644+P54748); assay: Displacement of [3H]rolipram from Phosphodiesterase 4 in rat brain membranes at 10 uM; format: cell membranes

c1ccc(CNc2nc(N3CCCCC3)nc3ccsc23)cc1
EC50 [1]: 21 µM | IC50 [2]: 65 µM | IC50 [3]: > 200 µM

CCCc1nc2cccnc2n(Cc2ccccc2)c1=O
IC50 [2]: 1 µM | IC50 [3]: > 200 µM

CCCc1nc2ccccc2n(Cc2ccccc2)c1=O
IC50 [2]: 0.9 µM | IC50 [3]: > 200 µM

CCCCc1nc2ccccc2c(=O)n1Cc1ccccc1
IC50 [2]: 16 µM | IC50 [3]: > 200 µM

c1ccc(CNc2nc(-c3ccccc3)nc3ccsc23)cc1
inhibition [4]: 8% | IC50 [2]: 3 µM | IC50 [3]: > 200 µM

c1ccc(CNc2[nH]c(Cc3ccccc3)nc3ncnc2-3)cc1
IC50 [2]: 29 µM | IC50 [3]: > 200 µM

c1ccc(CNc2nc(Cc3ccccc3)nc3ccsc23)cc1
IC50 [2]: 1.5 µM | IC50 [3]: 5 µM

CCCCc1nc(NCc2ccc([N+](=O)[O-])cc2)c2sccc2n1
IC50 [2]: 6.3 µM | IC50 [3]: 8.5 µM

CCCCc1nc(NCc2ccc(-c3ccccc3)cc2)c2sccc2n1
IC50 [2]: > 200 µM | IC50 [3]: 200 µM

CCCCc1nc(NCc2ccccc2)c2nccnc2n1
IC50 [2]: 6.7 µM | IC50 [3]: 45 µM

CCCCc1nc(N(Cc2ccccc2)Cc2ccccc2)c2sccc2n1
inhibition [4]: 37% | IC50 [2]: 4 µM | IC50 [3]: > 200 µM

CCc1nc(NCc2ccccc2)c2sccc2n1
inhibition [4]: 41% | IC50 [2]: 2.3 µM | IC50 [3]: 30 µM

CCCCc1nc2ccsc2c(=O)n1Cc1ccccc1
IC50 [2]: 5 µM | IC50 [3]: 43 µM

CCCCc1nc(NC(=O)c2ccccc2)c2sccc2n1
IC50 [2]: 23 µM | IC50 [3]: > 200 µM

CCCCc1nc2ncccc2c(=O)n1Cc1ccccc1
IC50 [2]: 10 µM | IC50 [3]: > 200 µM

CCCCc1nc(NCc2ccncc2)c2sccc2n1
IC50 [2]: 0.6 µM | IC50 [3]: 29 µM

c1ccc(CNc2ncnc3ccsc23)cc1
EC50 [1]: 18 µM | IC50 [2]: 14 µM | IC50 [3]: 68 µM

CCCCc1nc(N(CCC)Cc2ccccc2)c2sccc2n1
inhibition [4]: 37% | IC50 [2]: 2.5 µM | IC50 [3]: > 200 µM
